These results are taken from ChEMBL document CHEMBL1144144, “Methylsulfomycin I, a new cyclic peptide antibiotic from a Streptomyces sp. HIL Y-9420704” (1999).

One may read the MIC as the smallest concentration in the dilution series that meets the test's criterion for growth inhibition.

Experiment [1] deals with Enterococcus equinus. The experiment is described as follows: Antimicrobial activity against vancomycin and teicoplanin-resistant Enterococcus equinus relative to vancomycin.
Experiment [2] concerns Enterococcus faecium. Kind of experiment: Antimicrobial activity against vancomycin and teicoplanin-resistant Enterococcus faecium P-1 relative to vancomycin. The format is functional.
The subject of experiment [3] is Staphylococcus epidermidis. Kind of experiment: Antimicrobial activity against teicoplanin-resistant Staphylococcus epidermidis 823 relative to vancomycin. The format is functional.
Experiment [4] concerns Staphylococcus haemolyticus. The experiment is described as follows: Antimicrobial activity against teicoplanin-resistant Staphylococcus haemolyticus 712 relative to vancomycin. The format is functional.
The test system of experiment [5] is Staphylococcus epidermidis. The experiment is described as follows: Antimicrobial activity against teicoplanin-sensitive Staphylococcus epidermidis 825 relative to vancomycin. The format is functional.
Experiment [6] deals with Enterococcus faecium. The experiment is described as follows: Antimicrobial activity against vancomycin and teicoplanin-resistant Enterococcus faecium R-1 relative to vancomycin. It is filed as functional.
Experiment [7] deals with Enterococcus faecium. Kind of experiment: Antimicrobial activity against vancomycin and teicoplanin-resistant Enterococcus faecium R-2 relative to vancomycin. The format is functional.
The test system of the next experiment is Enterococcus. Kind of experiment: Antimicrobial activity against Enterococcus species. The format is functional.
Experiment [8] relates to Staphylococcus haemolyticus. The experiment is described as follows: Antimicrobial activity against teicoplanin-sensitive Staphylococcus haemolyticus 712 relative to vancomycin. The format is functional.
The subject of a further experiment is Staphylococcus aureus. The experiment is described as follows: Antimicrobial activity against methicillin-resistant Staphylococcus aureus. The format is functional.
For experiment [9], the system named is Enterococcus faecium. The experiment is described as follows: Antimicrobial activity against vancomycin and teicoplanin-resistant Enterococcus faecium P-1. The format is functional.
The test system of experiment [10] is Staphylococcus epidermidis. The experiment is described as follows: Antimicrobial activity against teicoplanin-sensitive Staphylococcus epidermidis 825. The format is functional.
For experiment [11], the system named is Enterococcus faecium. The experiment is described as follows: Antimicrobial activity against vancomycin and teicoplanin-resistant Enterococcus faecium R-2. The format is functional.
Experiment [12] relates to Staphylococcus haemolyticus. The experiment is described as follows: Antimicrobial activity against teicoplanin-sensitive Staphylococcus haemolyticus 712. The format is functional.
Experiment [13] concerns Enterococcus faecium. The experiment is described as follows: Antimicrobial activity against vancomycin and teicoplanin-resistant Enterococcus faecium R-1. It is filed as functional.
Experiment [14] deals with Enterococcus equinus. Kind of experiment: Antimicrobial activity against vancomycin and teicoplanin-resistant Enterococcus equinus.

≈ marks a conversion by molar mass, not a printed value.

For `C=C(NC(=O)C(=C)NC(=O)C(=C)NC(=O)c1ccc2c(n1)-c1nc(oc1C)C(=C)NC(=O)C(=C)NC(=O)c1nc(oc1C)/C(=C/C)NC(=O)c1csc(n1)[C@H](OC)NC(=O)c1nc(oc1C)/C(=C\C(C)O)NC(=O)[C@H]([C@@H](C)O)NC(=O)c1csc-2n1)C(N)=O` (stereo partly specified) [METHYLSULFOMYCIN I], the fold change (FC) was > 800 in the experiment with Enterococcus equinus [1]; > 800 in the experiment on Enterococcus faecium [2]; 12.4 in experiment [3]; 12.4 in experiment [4]; 6.2 in [5]; > 800 in the experiment with Enterococcus faecium [6]. The fold change (FC) in the experiment on Enterococcus faecium [7] was > 800; in experiment [8] it was 6.2. In addition, the MIC in the experiment with Enterococcus and in the experiment with Staphylococcus aureus was 0.06 µg/mL (≈ 0.0476 µM) in each case.
With `CN[C@H](CC(C)C)C(=O)N[C@H]1C(=O)N[C@@H](CC(N)=O)C(=O)N[C@H]2C(=O)N[C@H]3C(=O)N[C@H](C(=O)N[C@H](C(=O)O)c4cc(O)cc(O)c4-c4cc3ccc4O)[C@H](O)c3ccc(c(Cl)c3)Oc3cc2cc(c3O[C@@H]2O[C@H](CO)[C@@H](O)[C@H](O)[C@H]2O[C@H]2C[C@](C)(N)[C@H](O)[C@H](C)O2)Oc2ccc(cc2Cl)[C@H]1O` [VANCOMYCIN], the MIC in the experiment on Enterococcus faecium [9] was > 100 µg/mL; in [10] it was 0.78 µg/mL (≈ 0.538 µM); against Enterococcus faecium [11], > 100 µg/mL; in experiment [12], 0.78 µg/mL (≈ 0.538 µM); in the experiment on Enterococcus faecium [13], > 100 µg/mL; in the experiment on Enterococcus equinus [14], > 100 µg/mL.
